{"source": "paper PMC10113214", "about": "(Scientific Reports, 2023)", "key": {"[1]": {"system": "human primary dermal fibroblasts", "format": "cell-based", "method": "Skin samples were obtained from patients of the Oncological Surgery Clinic in the Medical University of Gdańsk. The procedure was approved by the Independent Bioethics Commission for Research of the Medical University of Gdańsk (NKBBN/387/2014) and written informed consent was obtained from patients prior to surgery. All experiments were performed in accordance with guidelines and regulations. The isolation of fibroblasts was performed by explant culture as previously described. Briefly, skin samples were cut into small pieces, and the epidermis was removed by dispase digestion. To allow cells to grow out from the tissue samples, the human dermis was placed in 6-well plates in DMEM-HG medium (Sigma Aldrich Co., cat. D6429) supplemented with 10% of FBS (fetal bovine serum, Sigma-Aldrich Co., F9665), 100 U/mL of penicillin and 100 μg/mL streptomycin, and placed under standard conditions (humidified atmosphere with 5% CO2 at 37 °C). The medium was changed every 2–3 days.\nRADA peptides were dissolved in water at a concentration of 1.0%, placed in culture inserts (0.4 μm) in 24-well plates, and incubated for at least 1 h at 37 °C to allow gelation. […] After 3 days of incubation, cells were stained with carboxyfluorescein succinimidyl ester (CFSE) (10 μM) and propidium iodide (100 µM) for 3 min. and then analyzed by fluorescence microscopy to assess their viability."}, "[2]": {"assay": "Circular dichroism, conformation and thermal stability of β-sheet", "format": "physicochemical", "details": "CD", "method": "The molar ellipticity of peptides were registered on a Jasco J-815 spectrometer (JASCO, Easton, MD, USA). Solutions of peptide hybrids were prepared in water solution (10 mg/ml), incubated at 37 °C for 4 h and then diluted to a final concentration of 0.20 mg/ml. CD spectra measurements were performed at 25 °C, 30 °C, 35 °C, 40 °C, 45 °C, 50 °C, 55 °C and 60 °C, at 190–260 nm wavelength and at a scan speed of […]. The background of the solvent was subtracted. The results are presented as the relationship of mean residue molar ellipticity (MRME) [deg × cm^2 × dmol^−1] to wavelength [nm]. Measurements were performed in triplicate. In order to determine the peptides’ denaturation temperatures, the molar ellipticity rotatory angle at a fixed wavelength of 196 nm, [θ]196, was measured as a function of temperature (max 100 °C). CD temperature measurements were carried out up to a temperature of 100 °C. Above this temperature, the cure was extrapolated with GraphPad Prism 8 software using the 4PL curve fit function. The denaturation temperature was determined as the temperature at which the change in ellipticity (θ) was half complete."}, "[3]": {"assay": "Transmission electron microscopy of nanofibres", "format": "physicochemical", "details": "1% gel in PBS diluted to 0.001%, uranyl acetate stain", "method": "1% gel solutions were prepared and incubated in PBS. The samples were then diluted to 0.001% concentration. A drop of solution was applied to a microcellulose membrane and stained with a 1.5% solution of uranyl acetate. The images were registered on a Tecnai Spirit BioTwin FEI Transmission Electron Microscope operating at 120 kV."}, "[4]": {"system": "full-thickness excisional dorsal skin wounds", "assay": "Skin wound healing model in mice", "format": "in vivo, BALB/c mice", "method": "Eight to ten-week-old BALB/c female mice were used for these experiments. All experimental procedures were approved by the Local Ethics Committee for Animal Experimentation in Bydgoszcz, Poland (Approval No. 49/2016). The study was conducted in compliance with the ARRIVE gudidelines. All animal handling methods were carried out in accordance with European Union Commission Recommendation of 18 June 2007 on guidelines for the accommodation and care of animals used for experimental and other scientific purposes. Before experiments, mice were randomized and divided into groups comprising six individuals. The mice were anaesthetized with inhaled 2–5% isoflurane. The skin on the dorsum was shaved and disinfected. After the skin was folded and raised cranially and caudally along the spine, the mouse was placed in a lateral position, and the folded skin was pierced with a 6.0 mm biopsy punch to make two through-and-through symmetrical wounds. Next, 10 µL of peptide hybrid hydrogel was applied onto each wound. Every gel was prepared in sterile conditions in biological safety cabinet, using sterile water to final concentration of 10 mg/ml (1%). Then the gels were incubated for 24 h allowing it to assemble. Control mice were treated with RADA16-I. The wounds were covered with a transparent Tegaderm TM dressing to protect the wound from outer environment of the cage and other animals. It was fastened with an adhesive plaster wrapped around the animal’s torso. The peptide hybrids were applied daily to the wounds for five consecutive days. The dressings were replaced daily in the first five days of the experiment and every second day until the end of the second week of the experiment. To measure the wound areas the wounds were photographed with a ruler placed next to the injury site. Wound areas were calculated using the computer-assisted image analysis program ImageJ[51]."}, "HaCaT keratinocytes": {"system": "HaCaT keratinocytes", "assay": "LDH cytotoxicity assay, HaCaT", "format": "cell-based, human", "details": "150 µg/ml, 48 h, 3 independent experiments, n = 12", "method": "Human HaCaT keratinocytes (DKFZ, Heidelberg, Germany)[47],[48], the human dermal fibroblast 46BR.1N cell line (ECACC, Sigma Aldrich Co.) and human primary dermal fibroblasts used in this study were routinely cultured in culture flasks (growth surface area: 25 cm^2) in DMEM-HG medium supplemented with 10% fetal bovine serum, 100 U/mL penicillin and […] streptomycin under standard conditions.\nBriefly, the HaCaT and 46BR.1N cells were seeded in 96-well plates at a density of 5000 per well. Cell stimulation with RADA derivatives was performed using a protocol described before[49],[50]. Both assays were performed according to the manufacturers’ instructions (XTT- Roche, Cat. No. 11465015001; LDH- Takara, Cat. No. MK401)."}}, "data": [{"smiles": "CC(=O)N[C@@H](CCCNC(=N)N)C(=O)N[C@@H](C)C(=O)N[C@@H](CC(=O)O)C(=O)N[C@@H](C)C(=O)N[C@@H](CCCNC(=N)N)C(=O)N[C@@H](C)C(=O)N[C@@H](CC(=O)O)C(=O)N[C@@H](C)C(=O)N[C@@H](CCCNC(=N)N)C(=O)N[C@@H](C)C(=O)N[C@@H](CC(=O)O)C(=O)N[C@@H](C)C(=O)N[C@@H](CCCNC(=N)N)C(=O)N[C@@H](C)C(=O)N[C@@H](CC(=O)O)C(=O)N[C@@H](C)C(=O)NCC(=O)NCC(=O)NCC(=O)N[C@@H](C)C(=O)N[C@@H](C)C(=O)N1CCC[C@H]1C(=O)N[C@H](C(=O)NCC(=O)NCC(=O)NCC(=O)N[C@@H](CCCCN)C(=O)NCC(=O)N[C@@H](Cc1c[nH]cn1)C(=O)N[C@@H](CCCCN)C(N)=O)C(C)C", "note": "[RADA-KGHK, Ac-(Arg-Ala-Asp-Ala)4-Gly-Gly-Gly-Ala-Ala-Pro-Val-Gly-Gly-Gly-Lys-Gly-His-Lys-NH2]", "values": [{"measurement": "viability / dead cells on scaffold (CFSE / propidium iodide)", "setting": "[1]", "value": "most dead cells were observed"}, {"measurement": "temperature of first disruption of the β-sheets", "setting": "[2]; [θ]196 nm as function of temperature 4–100 °C, gel 10 mg/ml in water, 37 °C 4 h, diluted to 0.20 mg/ml, decrease of molar ellipticity", "value": "~61", "unit": "°C"}, {"measurement": "transition temperature (half β-conformation, half disordered)", "setting": "[2]; [θ]196 nm vs temperature, 0.20 mg/ml in water, above 100 °C curve extrapolated, 4PL fit", "value": "about 92 °C"}, {"measurement": "fibre thickness (TEM)", "setting": "[3]", "value": "about 3 nm"}, {"measurement": "wound closure on day 7", "setting": "[4]; BALB/c female mice, 6.0 mm punch dorsal wounds, 10 µL 1% hydrogel topically daily for five days, n = 6, SD", "value": "44.4 ± 4.9", "unit": "%"}, {"measurement": "wound healing compared to RADA16-I", "setting": "[4]; BALB/c mice, 1% hydrogel topically, day 2 up to day 14", "value": "Accelerated wound healing"}, {"measurement": "cytotoxicity (LDH), slight effect", "setting": "HaCaT keratinocytes", "value": "ca. 15%"}]}]}
